Results taken from patent US9808003B2, “Herbicidally active 2-(substituted-phenyl)-cyclopentane-1,3-dione compounds and derivatives thereof” (Syngenta Limited, priority 2013, dated 2017).

Columns and labels:
Type in all cases: in vivo
[1] = system: Spring Wheat “Teal”; experiment: Test 1B glasshouse assay, post-emergence herbicidal activity against cereal crops; details: 14 DAA
Method: (§1) Biological Example 1B tests the herbicidal activity of“technical” compounds (i.e. compounds not previously formulated before the test), as the herbicides under test.
(§2) An “instant formulation”, known as the “IF50”, containing 50 g/liter (i.e. 5% w/v) of the “technical” (i.e. unformulated) active ingredient (i.e. the herbicide under test), is prepared by dissolving the active ingredient in a mixture of organic solvents and emulsifier, details of which are provided in the Table below.
(§3) This IF50 is mixed with a small, variable amount of acetone to aid dissolution, before addition of a 0.5% v/v aqueous solution of the adjuvant Adigor™ (an adjuvant containing rapeseed oil methyl ester, ethoxylated alcohols, and a mixture of heavy aromatic hydrocarbons, e.g. available from Syngenta), as the aqueous diluent, to form an aqueous spray solution which contains a predetermined concentration of the active ingredient (which varies depending on the application rate of the active ingredient to the plants) and 0.5% v/v of the adjuvant Adigor™. This aqueous spray solution is suitable for spraying onto plants.
(§4) Seeds of a variety of test species are sown in standard soil in pots. After cultivation for 14 days under controlled conditions in a glasshouse (at 22/16° C., day/night; 16 hours light; 65% humidity), the plants are sprayed post-emergence with the above-mentioned aqueous spray solution containing inter alia the “technical” active ingredient (i.e. the herbicide under test) and the adjuvant Adigor™.
(§5) The test plants are then grown on under controlled conditions in the glasshouse (at 22/16° C., day/night; 16 hours light; 65% humidity) and are watered twice daily. 14 days after application of the test herbicide, the test is evaluated visually for percentage phytotoxicity to the plant (where 100%=total damage to plant; 0%=no damage to plant).
(§6) More specifically, post-emergence herbicidal activity (phytotoxicity) data, on certain tested grassy monocotyledonous weeds (and/or plants of the type Gramineae) and cereal crops in the glasshouse, are measured 14 days after application of the herbicide (14 DAA), typically for inter alia one or more of the following application rates: • (a) a post-emergence application rate of 60 g/ha of the test herbicide with or without 50 g/ha of cloquintocet-mexyl safener, and • (b) a post-emergence application rate of 90 g/ha of the test herbicide with 50 g/ha of cloquintocet-mexyl safener, and • (c) a post-emergence application rate of 120 g/ha of the test herbicide with 50 g/ha of cloquintocet-mexyl safener.
(§7) The cloquintocet-mexyl, when used, is present in the formulation containing the herbicide under test dissolved in acetone plus IF50.
(§8) The range of herbicide application rates tested sometimes includes application rates other than those shown above, and the rates can vary depending on the herbicide under test.
(§9) Herbicidal activity (phytotoxicity) is evaluated visually, and an assessed percentage phytotoxicity score is given for each herbicidal application on each plant species (with 100%=total damage to plant; 0%=no damage to plant; the assessment is recorded in increments of 1%). Two replicates are made for each experiment, and the mean herbicidal activity (phytotoxicity) data is reported.

[2] = system: Winter Wheat “Hereward”; experiment: as above; details: for Post-emergence herbicidal activity against cereal crops, percentage phytotoxicity, Winter Wheat “Hereward”: 14 DAA
Method: as §1, §2, §3, §4, §5, §6, §7, §8, §9

[3] = system: Winter Barley “Suzuka”; experiment: as above; details: for Post-emergence herbicidal activity against cereal crops, percentage phytotoxicity, Winter Barley “Suzuka”: 14 DAA
Method: as §1, §2, §3, §4, §5, §6, §7, §8, §9

[4] = system: Spring Barley “Harrington”; experiment: as above; details: for Post-emergence herbicidal activity against cereal crops, percentage phytotoxicity, Spring Barley “Harrington”: 14 DAA
Method: as §1, §2, §3, §4, §5, §6, §7, §8, §9

[5] = system: Setaria viridis (SETVI); experiment: Test 1B glasshouse assay, post-emergence herbicidal activity against grassy weeds; details: 14 DAA
Method: as §1, §2, §3, §4, §5, §6, §7, §8, §9
(§10) For compounds A34, A98, A99, A87, A100, A101, A89, A120, A120A, A120B, A23, A127, A128, A89, A112 and A113 the tested weeds were as follows: Avena fatua (AVEFA), Lolium multiflorum (LOLMU), Setaria viridis (SETVI), Poa annua (POAAN), Alopecurus myosuroides (ALOMY). All five of these are grassy monocotyledonous weeds. Except for SETVI, these are all “cool-season” grassy monocotyledonous weeds.

[6] = system: Avena fatua (AVEFA); experiment: as above; details: 14 DAA
Method: as §1, §2, §3, §4, §5, §6, §7, §8, §9, §10

[7] = system: Alopecurus myosuroides (ALOMY); experiment: as above; details: 14 DAA
Method: as §1, §2, §3, §4, §5, §6, §7, §8, §9, §10

[8] = system: Lolium multiflorum (LOLMU); experiment: as above; details: 14 DAA
Method: as §1, §2, §3, §4, §5, §6, §7, §8, §9, §10

[9] = system: Poa annua (POAAN); experiment: as above; details: 14 DAA
Method: as §1, §2, §3, §4, §5, §6, §7, §8, §9, §10

[10] = system: Spring Wheat “Freya”; experiment: Test 1B glasshouse assay, post-emergence herbicidal activity against cereal crops
[11] = 30 g/ha herbicide, 50 g/ha cloquintocet-mexyl
[12] = 45 g/ha herbicide, 50 g/ha cloquintocet-mexyl
[13] = 60 g/ha herbicide, 0 g/ha cloquintocet-mexyl
[14] = 60 g/ha herbicide, 50 g/ha cloquintocet-mexyl
[15] = herbicide 30 g/ha, cloquintocet-mexyl 50 g/ha
[16] = herbicide 45 g/ha, cloquintocet-mexyl 50 g/ha
[17] = herbicide 60 g/ha, cloquintocet-mexyl 0 g/ha
[18] = herbicide 60 g/ha, cloquintocet-mexyl 50 g/ha

SMILES	Post-emergence herbicidal activity, percentage phytotoxicity, SETVI [5, 11]	Post-emergence herbicidal activity, percentage phytotoxicity, SETVI [5, 12]	Post-emergence herbicidal activity, percentage phytotoxicity, SETVI [5, 13]	Post-emergence herbicidal activity, percentage phytotoxicity, SETVI [5, 14]	Post-emergence herbicidal activity, percentage phytotoxicity, AVEFA [6, 11]	Post-emergence herbicidal activity, percentage phytotoxicity, AVEFA [6, 12]	Post-emergence herbicidal activity, percentage phytotoxicity, AVEFA [6, 13]	Post-emergence herbicidal activity, percentage phytotoxicity, AVEFA [6, 14]	Post-emergence herbicidal activity, percentage phytotoxicity, ALOMY [7, 11]	Post-emergence herbicidal activity, percentage phytotoxicity, ALOMY [7, 12]	Post-emergence herbicidal activity, percentage phytotoxicity, ALOMY [7, 13]	Post-emergence herbicidal activity, percentage phytotoxicity, ALOMY [7, 14]	Post-emergence herbicidal activity, percentage phytotoxicity, LOLMU [8, 11]	Post-emergence herbicidal activity, percentage phytotoxicity, LOLMU [8, 12]	Post-emergence herbicidal activity, percentage phytotoxicity, LOLMU [8, 13]	Post-emergence herbicidal activity, percentage phytotoxicity, LOLMU [8, 14]	Post-emergence herbicidal activity, percentage phytotoxicity, POAAN [9, 11]	Post-emergence herbicidal activity, percentage phytotoxicity, POAAN [9, 12]	Post-emergence herbicidal activity, percentage phytotoxicity, POAAN [9, 13]	Post-emergence herbicidal activity, percentage phytotoxicity, POAAN [9, 14]	also measured
CCc1cc(-n2cc(Cl)cn2)cc(C)c1C1C(=O)C[C@H](CCNC(=O)c2ccccn2)C1=O (stereo partly drawn) [Compound A101]	15%	35%	53%	53%	73%	88%	90%	88%	25%	43%	55%	55%	68%	83%	88%	83%	5%	15%	48%	38%	Post-emergence herbicidal activity against cereal crops, percentage phytotoxicity, Spring Wheat “Teal” [1, 11]: 10%; Post-emergence herbicidal activity against cereal crops, percentage phytotoxicity, Spring Wheat “Teal” [1, 12]: 13%; Post-emergence herbicidal activity against cereal crops, percentage phytotoxicity, Spring Wheat “Teal” [1, 13]: 48%; Post-emergence herbicidal activity against cereal crops, percentage phytotoxicity, Spring Wheat “Teal” [1, 14]: 18%; Post-emergence herbicidal activity against cereal crops, percentage phytotoxicity, Winter Wheat “Hereward” [2, 11]: 18%; Post-emergence herbicidal activity against cereal crops, percentage phytotoxicity, Winter Wheat “Hereward” [2, 12]: 23%; Post-emergence herbicidal activity against cereal crops, percentage phytotoxicity, Winter Wheat “Hereward” [2, 13]: 43%; Post-emergence herbicidal activity against cereal crops, percentage phytotoxicity, Winter Wheat “Hereward” [2, 14]: 38%; Post-emergence herbicidal activity against cereal crops, percentage phytotoxicity, Winter Barley “Suzuka” [3, 11]: 23%; Post-emergence herbicidal activity against cereal crops, percentage phytotoxicity, Winter Barley “Suzuka” [3, 12]: 23%; Post-emergence herbicidal activity against cereal crops, percentage phytotoxicity, Winter Barley “Suzuka” [3, 13]: 75%; Post-emergence herbicidal activity against cereal crops, percentage phytotoxicity, Winter Barley “Suzuka” [3, 14]: 40%; Post-emergence herbicidal activity against cereal crops, percentage phytotoxicity, Spring Barley “Harrington” [4, 11]: 18%; Post-emergence herbicidal activity against cereal crops, percentage phytotoxicity, Spring Barley “Harrington” [4, 12]: 18%; Post-emergence herbicidal activity against cereal crops, percentage phytotoxicity, Spring Barley “Harrington” [4, 13]: 48%; Post-emergence herbicidal activity against cereal crops, percentage phytotoxicity, Spring Barley “Harrington” [4, 14]: 23%
Cc1cc(C)c(C2C(=O)C[C@@H](CCNC(=O)c3cccc(F)n3)C2=O)c(C)c1 (stereo partly drawn) [Compound A112]	100%	100%	100%	100%	93%	94%	98%	97%	97%	97%	99%	98%	98%	100%	100%	100%	0%	0%	40%	13%	Percentage Phytotoxicity Winter Wheat “Hereward” [2, 15]: 33%; Percentage Phytotoxicity Winter Wheat “Hereward” [2, 16]: 40%; Percentage Phytotoxicity Winter Wheat “Hereward” [2, 17]: 85%; Percentage Phytotoxicity Winter Wheat “Hereward” [2, 18]: 50%; Percentage Phytotoxicity Winter Barley “Suzuka” [3, 15]: 18%; Percentage Phytotoxicity Winter Barley “Suzuka” [3, 16]: 30%; Percentage Phytotoxicity Winter Barley “Suzuka” [3, 17]: 88%; Percentage Phytotoxicity Winter Barley “Suzuka” [3, 18]: 53%; Percentage Phytotoxicity Spring Barley “Harrington” [4, 15]: 30%; Percentage Phytotoxicity Spring Barley “Harrington” [4, 16]: 45%; Percentage Phytotoxicity Spring Barley “Harrington” [4, 17]: 93%; Percentage Phytotoxicity Spring Barley “Harrington” [4, 18]: 73%; Percentage Phytotoxicity Spring Wheat “Freya” [10, 15]: 25%; Percentage Phytotoxicity Spring Wheat “Freya” [10, 16]: 33%; Percentage Phytotoxicity Spring Wheat “Freya” [10, 17]: 75%; Percentage Phytotoxicity Spring Wheat “Freya” [10, 18]: 50%
Cc1cc(C)c(C2C(=O)C[C@H](CCNC(=O)c3cccc(F)n3)C2=O)c(C)c1 (stereo partly drawn) [Compound A113]	5%	40%	53%	55%	1%	3%	5%	3%	0%	18%	20%	25%	3%	20%	45%	23%	0%	0%	8%	0%	Percentage Phytotoxicity Winter Wheat “Hereward” [2, 15]: 0%; Percentage Phytotoxicity Winter Wheat “Hereward” [2, 16]: 0%; Percentage Phytotoxicity Winter Wheat “Hereward” [2, 17]: 3%; Percentage Phytotoxicity Winter Wheat “Hereward” [2, 18]: 0%; Percentage Phytotoxicity Winter Barley “Suzuka” [3, 15]: 0%; Percentage Phytotoxicity Winter Barley “Suzuka” [3, 16]: 0%; Percentage Phytotoxicity Winter Barley “Suzuka” [3, 17]: 28%; Percentage Phytotoxicity Winter Barley “Suzuka” [3, 18]: 0%; Percentage Phytotoxicity Spring Barley “Harrington” [4, 15]: 0%; Percentage Phytotoxicity Spring Barley “Harrington” [4, 16]: 0%; Percentage Phytotoxicity Spring Barley “Harrington” [4, 17]: 33%; Percentage Phytotoxicity Spring Barley “Harrington” [4, 18]: 8%; Percentage Phytotoxicity Spring Wheat “Freya” [10, 15]: 3%; Percentage Phytotoxicity Spring Wheat “Freya” [10, 16]: 0%; Percentage Phytotoxicity Spring Wheat “Freya” [10, 17]: 7%; Percentage Phytotoxicity Spring Wheat “Freya” [10, 18]: 0%
